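Method: 48-hour compound exposure of cells in 96-well plates, five concentrations, linear interpolation of endpoints. GI50 is the concentration that inhibits growth by half. TGI is the concentration that stops growth completely.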

Experimental findings from PubChem BioAssay (NCI) are described below.

Some test systems named below: CCRF-CEM leukemia; OVCAR-3 ovarian; EKVX NSCLC; NCI-H460 lung; OVCAR-4 ovarian; COLO 205 colon; NCI/ADR-RES ovarian; 786-0 renal; UACC-62 melanoma; NCI-H226 lung; OVCAR-5 ovarian; LOX IMVI melanoma.
Common to all, as to assay: NCI-60 cell line screen, 48 h

As for `Cc1cccc(N/C(Sc2ccccc2)=C(/C(Cl)=C(Cl)Cl)[N+](=O)[O-])c1`, the TGI with CCRF-CEM leukemia is greater than 100 µM; with OVCAR-3 ovarian, 21.6 µM; in the assay on EKVX NSCLC, 42.7 µM; in the assay with NCI-H460 lung, greater than 100 µM; in the assay with OVCAR-4 ovarian, 38.6 µM; with COLO 205 colon, 29 µM. Moreover, the TGI in the assay with NCI/ADR-RES ovarian worked out at 39.1 µM; in the assay on 786-0 renal, 32.9 µM; in the assay on UACC-62 melanoma it was 54.6 µM; in the assay on NCI-H226 lung it was 35.2 µM; in the assay with OVCAR-5 ovarian it was 40.8 µM.

As to `c1ccc([I+]c2ccccc2)cc1`, the TGI in the assay with CCRF-CEM leukemia, in the assay on OVCAR-3 ovarian, with LOX IMVI melanoma, in the assay on EKVX NSCLC, in the assay with NCI-H460 lung and with OVCAR-4 ovarian was greater than 100 µM throughout. Also, the TGI with COLO 205 colon, with NCI/ADR-RES ovarian, in the assay on 786-0 renal, in the assay on NCI-H226 lung and in the assay with OVCAR-5 ovarian was greater than 100 µM throughout.

As to `O=c1cc(-c2ccccc2)[nH]c2nccn12`, the TGI in the assay with CCRF-CEM leukemia, in the assay on OVCAR-3 ovarian, in the assay on LOX IMVI melanoma, in the assay with EKVX NSCLC, in the assay with NCI-H460 lung and in the assay with OVCAR-4 ovarian was greater than 10 µM in each case. Moreover, the TGI in the assay on COLO 205 colon, with NCI/ADR-RES ovarian, in the assay on UACC-62 melanoma, in the assay with NCI-H226 lung and in the assay with OVCAR-5 ovarian was greater than 10 µM in each case.

As to `CC1=CC2c3cccc4[nH]cc(c34)CC2N(C)C1` (stereo not given), the TGI in the assay with CCRF-CEM leukemia, in the assay on OVCAR-3 ovarian, in the assay on LOX IMVI melanoma, in the assay on EKVX NSCLC, in the assay on NCI-H460 lung and with OVCAR-4 ovarian was greater than 100 µM in each case. The TGI in the assay with COLO 205 colon, with NCI/ADR-RES ovarian, in the assay on UACC-62 melanoma, in the assay with NCI-H226 lung and in the assay with OVCAR-5 ovarian was greater than 100 µM in each case.

In the case of `CC(C)NC(=O)OCc1c2c(n(C)c1COC(=O)NC(C)C)-c1ccccc1CC2`, the TGI was determined as 7.63 µM with CCRF-CEM leukemia; 27.3 µM with OVCAR-3 ovarian; 16.9 µM in the assay with LOX IMVI melanoma; 33.6 µM with EKVX NSCLC; 28.8 µM with NCI-H460 lung; 34.5 µM with OVCAR-4 ovarian. Moreover, the TGI in the assay with COLO 205 colon is 21.6 µM; in the assay on NCI/ADR-RES ovarian, 32.2 µM; in the assay with UACC-62 melanoma, 25.5 µM; in the assay with NCI-H226 lung, 31.4 µM; in the assay on OVCAR-5 ovarian, 31.6 µM.

On to `CCOc1cc2c(c(OCC)c1O)CC[C@@H]1[C@@H]2CC[C@]2(C)[C@@H](O)CC[C@@H]12`, for which the TGI in the assay with CCRF-CEM leukemia was greater than 100 µM; in the assay on OVCAR-3 ovarian, 3.08 µM; in the assay on LOX IMVI melanoma it was 17.1 µM; in the assay with EKVX NSCLC, greater than 100 µM; with OVCAR-4 ovarian, greater than 100 µM; with COLO 205 colon, 55.3 µM. Besides, the TGI with NCI/ADR-RES ovarian was 46 µM; with 786-0 renal it was greater than 100 µM; in the assay with UACC-62 melanoma it was 27.5 µM; in the assay with NCI-H226 lung it was greater than 100 µM; in the assay with OVCAR-5 ovarian, greater than 100 µM. For the same compound, in the assay on OVCAR-3 ovarian, the GI50 is 0.0896 µM.

On to `CC1C(C#N)(C#N)C(C#N)=C(N)C1(Cl)[N+](=O)[O-]` (stereo not given), for which the TGI in the assay with CCRF-CEM leukemia worked out at 5.12 µM; in the assay on OVCAR-3 ovarian, 22 µM; with LOX IMVI melanoma, 18.8 µM; in the assay on EKVX NSCLC, 41.4 µM; with OVCAR-4 ovarian, 25.8 µM; in the assay with COLO 205 colon, 18.5 µM. The TGI with NCI/ADR-RES ovarian was 34.2 µM; in the assay on 786-0 renal, 18.1 µM; in the assay with UACC-62 melanoma, 24 µM; in the assay with NCI-H226 lung, 31.6 µM; in the assay with OVCAR-5 ovarian it was 29.6 µM.

Regarding `Cc1cc(S(=O)(=O)/N=C(\[N-]S(=O)(=O)c2cc(Cl)sc2Cl)[n+]2ccc(N(C)C)cc2)c(S)cc1Cl`, the TGI in the assay with CCRF-CEM leukemia, in the assay with OVCAR-3 ovarian, in the assay on LOX IMVI melanoma, in the assay with EKVX NSCLC, in the assay on NCI-H460 lung and with OVCAR-4 ovarian was greater than 100 µM in each case. The TGI in the assay on NCI/ADR-RES ovarian, in the assay with 786-0 renal, in the assay on NCI-H226 lung and with OVCAR-5 ovarian was greater than 100 µM throughout.

For the compound `COc1cccc(/C=C2\S/C(=N/Nc3nc(-c4ccc([N+](=O)[O-])cc4)cs3)NC2=O)c1O`, the TGI came out at 63.3 µM with CCRF-CEM leukemia; 30.1 µM in the assay on OVCAR-3 ovarian; 17.1 µM in the assay with LOX IMVI melanoma; 43 µM with EKVX NSCLC; 42 µM in the assay with NCI-H460 lung; 33 µM with COLO 205 colon. Moreover, the TGI in the assay on NCI/ADR-RES ovarian was 53.3 µM; in the assay with 786-0 renal, 38.9 µM; with NCI-H226 lung, 47.3 µM; in the assay on OVCAR-5 ovarian it was 54.7 µM.

As to `OC1CSc2nc3ccccc3n2C1` (stereo not given), the TGI with CCRF-CEM leukemia, with OVCAR-3 ovarian, in the assay with LOX IMVI melanoma, in the assay with EKVX NSCLC, in the assay with NCI-H460 lung and with COLO 205 colon was greater than 100 µM each time. For the same compound, the TGI with NCI/ADR-RES ovarian, in the assay with 786-0 renal, with UACC-62 melanoma, in the assay on NCI-H226 lung and in the assay with OVCAR-5 ovarian was greater than 100 µM in each case.

Turning to `CC(=O)Nc1cccc(N=NN(C)C)c1`, the TGI in the assay on CCRF-CEM leukemia, in the assay on OVCAR-3 ovarian, in the assay with LOX IMVI melanoma, with EKVX NSCLC, in the assay with NCI-H460 lung and with OVCAR-4 ovarian was greater than 100 µM each time. The TGI in the assay on COLO 205 colon, in the assay with NCI/ADR-RES ovarian, in the assay on UACC-62 melanoma, in the assay with NCI-H226 lung and in the assay with OVCAR-5 ovarian was greater than 100 µM in each case.

For the compound `Cc1ccc2c(/C=C/c3ccc(N(C)C)cc3)ccc(C(C)C)cc1-2`, the TGI in the assay on CCRF-CEM leukemia, in the assay on OVCAR-3 ovarian, with LOX IMVI melanoma, in the assay on EKVX NSCLC, in the assay on COLO 205 colon and in the assay on NCI/ADR-RES ovarian was greater than 100 µM throughout. Moreover, the TGI in the assay on 786-0 renal, with UACC-62 melanoma, with NCI-H226 lung and in the assay with OVCAR-5 ovarian was greater than 100 µM in each case.
